Key:
[1] = molecular target: alpha-1 adrenergic receptor; test: alpha-1 adrenergic receptor radioligand binding assay ([125I]-HEAT, rat cerebral cortex membranes); details: radioligand used at 40 pM
Procedure: The inhibitory properties of agents of the invention on binding of the alpha-1 adrenergic receptor can be determined in the following assay:
Cerebral cortices from male Sprague-Dawley rats (175-200 g) are dissected and homogenised in 10 volumes of ice cold 0.32 M sucrose (containing 1 mM MgCl2 dihydrate and 1 mM K2HPO4) with a glass/Teflon homogeniser. The membranes are centrifuged at 1000×g for 15 miN, the pellet discarded and the centrifugation repeated. The supernatants are pooled and centrifuged at 18,000×g for 15 minutes. The pellet is osmotically shocked in 10 volumes of water and kept on ice for 30 minutes. The suspension is centrifuged at 39,000×g for 20 minutes, resuspended in Krebs-Henseleit buffer pH 7.4 (1.17 mM MgS04 anhydrous, 4.69 mM KCl, 0.7 mM K2HPO4 anhydrous, 0.11 M NaCl, 11 mM D-glucose and 25 mM NaHCO3) containing 20 mM Tris, and kept for 2 days at −20° C. The membranes are then thawed at 20-23° C., washed three times with Krebs-Henseleit buffer by centrifugation at 18,000×g for 15 minutes, left overnight at 4° C. and washed again three times. […]
The resulting membranes are subjected to a radioligand binding assay. […] Following drying of the plates for 3 h. at 50° C., 40 μl of Microscint 20 is added to each well, the plates incubated at room temperature for a further 20 minutes and the retained radioactivity quantified in a Packard TopCount NXT™ scintillation counter. […]

histamine H1 = histamine H1 (Homo sapiens, UniProt P35367); test: histamine H1 antagonism
Sequence of histamine H1 (P35367 whole entry): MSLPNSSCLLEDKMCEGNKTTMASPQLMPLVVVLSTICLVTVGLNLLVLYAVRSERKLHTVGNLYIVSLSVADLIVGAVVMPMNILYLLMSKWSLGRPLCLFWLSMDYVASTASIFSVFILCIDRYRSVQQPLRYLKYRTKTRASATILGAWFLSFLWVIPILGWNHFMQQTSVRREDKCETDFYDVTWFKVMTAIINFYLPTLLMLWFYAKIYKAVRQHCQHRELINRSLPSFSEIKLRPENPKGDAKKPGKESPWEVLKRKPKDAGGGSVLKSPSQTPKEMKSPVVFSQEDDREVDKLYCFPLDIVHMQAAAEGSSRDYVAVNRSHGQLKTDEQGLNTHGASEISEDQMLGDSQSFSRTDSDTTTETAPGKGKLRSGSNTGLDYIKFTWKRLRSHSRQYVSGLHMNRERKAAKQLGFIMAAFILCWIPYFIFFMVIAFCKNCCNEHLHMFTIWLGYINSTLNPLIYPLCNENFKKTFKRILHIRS

| Kd [1] [pM] | histamine H1 antagonist activity (histamine H1) | SMILES |
| --- | --- | --- |
| 58.9 ± 18.7 |  | O=C1c2ccccc2CCC1CNCCc1ccc(O)c(I)c1 (stereo not drawn) [[^125I]-HEAT] |
|  | histamine H1 antagonists | CCc1nnc(NC(=O)N[C@@H]2CCCC[C@@H]2CN2CC(Oc3ccc(Cl)cc3)C2)s1 (racemic) [Example 31, (+/−)1-{(1R,2R)-2-[3-(4-Chloro-phenoxy)-azetidin-1-yl-methyl]-cyclohexyl}-3-(5-ethyl-[1,3,4]thiadiazol-2-yl)-urea] |
|  | histamine H1 antagonists | CCc1nnc(NC(=O)N[C@H](CO)CCN2CC(Sc3ccc(Cl)cc3)C2)s1 [Example 19, 1-{(S)-3-[3-(4-Chloro-phenylsulfanyl)-azetidin-1-yl]-1-hydroxymethyl-propyl}-3-(5-ethyl-[1,3,4]thiadiazol-2-yl)-urea] |

Source: patent publication US20070043013A1, “1,3 Disubstituted azetidine derivatives for use as ccr-3 receptor antagonists in the treatment of inflammatory and allergic diseases” (priority 2003, published 2007)
